According to patent US20260226101A1, “PEPTIDE WITH ANTI-INFLAMMATORY AND ANTI-MICROBIAL ACTIVITY” (priority 2023, published 2026):
Several values for one entry are separate records, joined by “and”; a condition that tells them apart may be missing. Equal values may be shown once. Entries after “also recorded” stand apart in the source; their conditions may differ. Ends that are not written are not given here.

System: CLP-induced polymicrobial sepsis
Assay: Cecal ligation and puncture (CLP) polymicrobial sepsis model
Format: in vivo, BALB/c mice
Procedure: Polymicrobial sepsis was induced using the CLP method described by [Wendy E. Walker, 2021; Benjamim et al. 2000], with minor modifications and the anesthetic used. Initially, the Mice were derived of food for 12 h before the CLP procedure and then anesthetized by intraperitoneal injection of ketamine (80-100 mg/kg BW) and xylazine in a dose (5-10 mg/kg) (for 20 g mice ketamine of 0.2 ml and xylazine of 0.1 ml). according to [Machado et al. 2012]. under sterile conditions a midline abdominal incision was made and then, a laparotomy of 10 mm/1 cm was performed, where the abdomen of mice was routinely disinfected and cut open in the middle to expose the abdominal cavity, and the cecum was mobilized, was then ligated below the cecal valve at the distal end of the cecum, ¾ was ligated with a sterile No. 4 thread, and punctured (CLP) with a 20-gauge needle in 2 places at the center of the distal end of the occlusal cecum and squeezed gently to extrude a small amount of intestinal contents through the perforation site to induce sepsis. The cecum was located but not ligated or punctured in the control animals. The cecum was placed back into the peritoneal cavity, and the abdominal incision was then closed in two layers with absorbable ethilon suture 5.0, and the animals were resuscitated with 0.1-0.2 mL of normal saline by subcutaneous injection. The sham group of mice had the identical operation as the treated and disease control groups, which included opening the peritoneum and exposing the bowel but without ligation or needle perforation of the cecum. Betadine/tramadol was used to relieve the pain of mice after operation. During the surgery, the […] was applied to the eyes to prevent dryness of the eyes. All the animals were returned to their cages, where they had free access to food and water. After 2 h of CLP, the treatment groups were administered with test peptides (0.6 & 1.2 mg/kg) and the standard drug through the subcutaneous & Intravenous route. To reduce variability between studies, the CLP method was always carried out by the same investigators. [Zingarelli B et al., Libert C et al., Hellman J et al., 2019].
Mice were subjected to CLP surgery and were discarded if they died during the procedure. In all the animal experiments, the test peptide IS 111 was administered by injections respectively; According to the clinical dosage regimen, IS 111 was repeatedly administered at 2 h after CLP surgery and recovery of animals from anesthesia. The mice were divided into the following treatment groups at random: BALB/c mice are used for Intravenous (IV) route of administration. In each group the half of the animals were killed after 4 and 18 hours, [Hubbard, W. J 2005; Rittirsch D 2009]. In another half of the animals, IS 111 at two doses 0.6 & 1.2 mg/kg were injected IV daily for 5 days following CLP. 0.9% Normal saline was administered in the sham group. The survival of mice was monitored for up to 18 h and the other half of the animals are continued for the survival monitored up to 7 days.
In the survival study, survival rates were determined by setting the day 0 from 0 to 18 h after surgery and continuing observation until day 7. In one set of animals/group, survival was monitored every 4 h up to 18 h and in another half subset of animals was followed for 5 days for survival assessment every 12 h after sepsis induction to verify mortality rates. The time of death was recorded as accurately as possible.
The physical activity of the mice was recorded independently by two independent observers who were blinded to treatment before sampling as previously described. In this study predetermined grading system was used with a scale of 1 (healthy) to 5 (agony). This scoring system is based on grading physical activity and food intake (table 16) using spontaneous activity of mice, reactivity to external stimuli, and spontaneous food intake to differentiate between grades 1 and 5. […]

In the case of “FAKKFAK [IS 111, Phe-Ala-Lys-Lys-Phe-Ala-Lys]”, the Activity index (0.6 mg/Kg, 18 h after CLP, scale 1 (very active) to 5 (lethargic)) is reported as 2.8 ± 0.5 Grade points, the Lung histology (0.6 mg/kg, 18 h) is reported as “Mild lung oedema, haemorrhage, and inflammatory cell infiltration” and the “Serum IL-10” value (24-48 h after CLP, treatment 2 h after CLP) is reported as “significant decrease”. For the same substance, the “Bacterial growth in the peritoneum / bacterial counts” value (18 h after CLP) was “inhibited; also recorded: ↓bacterial counts; ↓liver & kidney”, the Body temperature (18 h after CLP surgery) was “in range of normal values” and the “IL-10 levels in serum” value (18 h after CLP, IV) was “increased slightly and 6 and IL-12, &↑IL-10 in serum;”. The Survival percentage (7 days) was 80%, the “Myeloperoxidase levels in the lung” value (IS 111-treated mice) was “significantly decreased” and the Reduction of mortality (vs diseased control animals (normal saline)) was 80%. It also gave a Mice still surviving (~60 h post-CLP (last death in disease control group)) of 80%.
